Results taken from PubChem BioAssay (NCI).
Values joined by “and” are separate entries in the source; they are usually repeats but may differ in a detail not shown here. Equal values may be shown once.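 Dose response: 5 concentrations. Exposure: 48 h. Format: 96-well plates. Endpoint: linear interpolation; highest concentration if not reached. GI50 marks 50% less growth. TGI: total growth inhibition.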

Tests used:
Assay in all cases: NCI-60 cell line screen, 48 h
SF-295 CNS = test system: SF-295 CNS
OVCAR-3 ovarian = test system: OVCAR-3 ovarian
HCC-2998 colon = test system: HCC-2998 colon
CAKI-1 renal = test system: CAKI-1 renal
MOLT-4 leukemia = test system: MOLT-4 leukemia
NCI-H460 lung = test system: NCI-H460 lung
SW-620 colon = test system: SW-620 colon
SN12C renal = test system: SN12C renal
OVCAR-8 ovarian = test system: OVCAR-8 ovarian
A549 NSCLC = test system: A549 NSCLC
UACC-257 melanoma = test system: UACC-257 melanoma
T-47D breast = test system: T-47D breast
SF-268 CNS = test system: SF-268 CNS
PC-3 prostate = test system: PC-3 prostate
SK-MEL-5 melanoma = test system: SK-MEL-5 melanoma
HOP-62 NSCLC = test system: HOP-62 NSCLC
IGROV1 ovarian = test system: IGROV1 ovarian
NCI/ADR-RES ovarian = test system: NCI/ADR-RES ovarian
HS 578T breast = test system: HS 578T breast
HCT-116 colon = test system: HCT-116 colon
UACC-62 melanoma = test system: UACC-62 melanoma
UO-31 renal = test system: UO-31 renal
SF-539 CNS = test system: SF-539 CNS
NCI-H522 lung = test system: NCI-H522 lung
OVCAR-4 ovarian = test system: OVCAR-4 ovarian
OVCAR-5 ovarian = test system: OVCAR-5 ovarian
EKVX NSCLC = test system: EKVX NSCLC
SNB-75 CNS = test system: SNB-75 CNS
MDA-N = test system: MDA-N
MALME-3M melanoma = test system: MALME-3M melanoma
SK-MEL-28 melanoma = test system: SK-MEL-28 melanoma
U251 CNS = test system: U251 CNS
KM12 colon = test system: KM12 colon
786-0 renal = test system: 786-0 renal
K-562 leukemia = test system: K-562 leukemia
TK-10 renal = test system: TK-10 renal
SK-MEL-2 melanoma = test system: SK-MEL-2 melanoma
HOP-92 NSCLC = test system: HOP-92 NSCLC
MDA-MB-435 = test system: MDA-MB-435
MCF7 breast = test system: MCF7 breast
HCT-15 colon = test system: HCT-15 colon
NCI-H23 lung = test system: NCI-H23 lung
DU-145 prostate = test system: DU-145 prostate
MDA-MB-231 breast = test system: MDA-MB-231 breast
ACHN renal = test system: ACHN renal
A498 renal = test system: A498 renal
BT-549 breast = test system: BT-549 breast
SR leukemia = test system: SR leukemia
LOX IMVI melanoma = test system: LOX IMVI melanoma
SK-OV-3 ovarian = test system: SK-OV-3 ovarian
COLO 205 colon = test system: COLO 205 colon
RXF 393 renal = test system: RXF 393 renal
CCRF-CEM leukemia = test system: CCRF-CEM leukemia
HT29 colon = test system: HT29 colon
HL-60(TB) leukemia = test system: HL-60(TB) leukemia
RPMI-8226 leukemia = test system: RPMI-8226 leukemia
NCI-H226 lung = test system: NCI-H226 lung
M14 melanoma = test system: M14 melanoma
SNB-19 CNS = test system: SNB-19 CNS

CN(/N=C\c1ccc2ccccc2c1)C1=NCCCCN1
TGI (SF-295 CNS): 33.5 µM
TGI (OVCAR-3 ovarian): > 100 µM
TGI (HCC-2998 colon): 28.5 µM
TGI (CAKI-1 renal): 29.9 µM
TGI (MOLT-4 leukemia): 48.2 µM
TGI (NCI-H460 lung): 39.7 µM
TGI (SW-620 colon): 37.8 µM
TGI (SN12C renal): 45.7 µM
TGI (OVCAR-8 ovarian): > 100 µM
TGI (A549 NSCLC): 58.3 µM
TGI (UACC-257 melanoma): 33.7 µM
TGI (T-47D breast): > 100 µM
TGI (SF-268 CNS): > 100 µM
TGI (PC-3 prostate): 36 µM
TGI (SK-MEL-5 melanoma): 27.3 µM
TGI (HOP-62 NSCLC): 90.7 µM
TGI (IGROV1 ovarian): > 100 µM
TGI (NCI/ADR-RES ovarian): > 100 µM
TGI (HS 578T breast): 62.3 µM
TGI (HCT-116 colon): > 100 µM
TGI (UACC-62 melanoma): 64.2 µM
TGI (UO-31 renal): 55.8 µM
TGI (SF-539 CNS): 48.6 µM
TGI (NCI-H522 lung): 34 µM
TGI (OVCAR-4 ovarian): > 100 µM
TGI (OVCAR-5 ovarian): > 100 µM
TGI (EKVX NSCLC): > 100 µM
TGI (SNB-75 CNS): 59.3 µM
TGI (MDA-N): 31.2 µM
TGI (MALME-3M melanoma): 30.1 µM
TGI (SK-MEL-28 melanoma): 31.1 µM
TGI (U251 CNS): 44.6 µM
TGI (KM12 colon): 52.1 µM
TGI (786-0 renal): 32.8 µM
TGI (K-562 leukemia): 42.5 µM
TGI (TK-10 renal): 56.5 µM
TGI (SK-MEL-2 melanoma): 45.4 µM
TGI (HOP-92 NSCLC): 7.4 µM
TGI (MDA-MB-435): 38.1 µM
TGI (MCF7 breast): 48.9 µM
TGI (HCT-15 colon): > 100 µM
TGI (NCI-H23 lung): > 100 µM
TGI (DU-145 prostate): > 100 µM
TGI (MDA-MB-231 breast): 64.5 µM
TGI (ACHN renal): > 100 µM
TGI (A498 renal): 56.6 µM
TGI (BT-549 breast): 46.8 µM
TGI (SR leukemia): 68.7 µM
TGI (LOX IMVI melanoma): 28.7 µM
TGI (SK-OV-3 ovarian): > 100 µM
TGI (COLO 205 colon): 35.3 µM
TGI (RXF 393 renal): 42.6 µM
TGI (CCRF-CEM leukemia): 69.1 µM
TGI (HT29 colon): 38.2 µM
TGI (HL-60(TB) leukemia): 39.9 µM
TGI (RPMI-8226 leukemia): 56.9 µM
TGI (NCI-H226 lung): > 100 µM

C=CCn1c(=O)c(C)cn(/C(=C/C(=O)OCC)C(=O)OCC)c1=O
TGI (SF-295 CNS): > 100 µM
TGI (OVCAR-3 ovarian): 23.3 µM
TGI (HCC-2998 colon): 33.5 µM
TGI (CAKI-1 renal): 3.65 µM
TGI (MOLT-4 leukemia): 21.2 µM
TGI (NCI-H460 lung): > 68.9 µM
TGI (SW-620 colon): 15.5 µM
TGI (SN12C renal): 29.7 µM
TGI (OVCAR-8 ovarian): 45.9 µM
TGI (M14 melanoma): 28.1 µM
TGI (A549 NSCLC): 87.5 µM
TGI (UACC-257 melanoma): 55.5 µM
TGI (T-47D breast): 30.7 µM
TGI (SF-268 CNS): 44.3 µM
TGI (PC-3 prostate): 28.9 µM
TGI (SK-MEL-5 melanoma): 36.3 µM
TGI (HOP-62 NSCLC): > 100 µM
TGI (IGROV1 ovarian): 31.4 µM
TGI (NCI/ADR-RES ovarian): 55.5 µM
TGI (HS 578T breast): 76.1 µM
TGI (HCT-116 colon): 21.5 µM
TGI (UACC-62 melanoma): 34.4 µM
TGI (UO-31 renal): 29.1 µM
TGI (SF-539 CNS): 63.2 µM
TGI (NCI-H522 lung): 10.9 µM
TGI (OVCAR-4 ovarian): 46.4 µM
TGI (OVCAR-5 ovarian): 30.2 µM
TGI (EKVX NSCLC): 28.7 µM
TGI (SNB-19 CNS): > 86.1 µM
TGI (SNB-75 CNS): 25.6 µM
TGI (MDA-N): 33.7 µM
TGI (MALME-3M melanoma): 29.2 µM
TGI (SK-MEL-28 melanoma): 32.3 µM
TGI (U251 CNS): 28.4 µM
TGI (KM12 colon): 36 µM
TGI (786-0 renal): 19.2 µM
TGI (K-562 leukemia): 17.1 µM
TGI (TK-10 renal): 28.8 µM
TGI (SK-MEL-2 melanoma): 53.6 µM
TGI (HOP-92 NSCLC): 17.2 µM
TGI (MDA-MB-435): 28.2 µM
TGI (MCF7 breast): 18.9 µM
TGI (HCT-15 colon): 13.7 µM
TGI (NCI-H23 lung): 31.8 µM
TGI (DU-145 prostate): > 74.3 µM
TGI (MDA-MB-231 breast): 29.3 µM
TGI (ACHN renal): 21.2 µM
TGI (A498 renal): 45.1 µM
TGI (BT-549 breast): 30.2 µM
TGI (SR leukemia): 13.3 µM
TGI (LOX IMVI melanoma): 21.3 µM
TGI (SK-OV-3 ovarian): > 100 µM
TGI (COLO 205 colon): 15.2 µM
TGI (RXF 393 renal): 28.2 µM
TGI (CCRF-CEM leukemia): 5.42 µM
TGI (HT29 colon): 25.8 µM
TGI (HL-60(TB) leukemia): 5.48 µM
TGI (RPMI-8226 leukemia): 39.5 µM
TGI (NCI-H226 lung): > 54.7 µM

Oc1ccc2ccccc2c1N=Nc1ccccc1
GI50 (SF-295 CNS): 39.6 µM and > 90.3 µM
TGI (SF-295 CNS): > 100 µM
TGI (OVCAR-3 ovarian): > 100 µM
TGI (HCC-2998 colon): > 100 µM
TGI (CAKI-1 renal): > 100 µM
TGI (MOLT-4 leukemia): > 100 µM
TGI (NCI-H460 lung): > 100 µM
TGI (SW-620 colon): > 100 µM
TGI (SN12C renal): > 100 µM
TGI (OVCAR-8 ovarian): > 100 µM
TGI (M14 melanoma): > 100 µM
TGI (A549 NSCLC): > 100 µM
TGI (UACC-257 melanoma): > 100 µM
GI50 (T-47D breast): 22.5 µM and > 100 µM
TGI (T-47D breast): > 100 µM
GI50 (SF-268 CNS): 25 µM and > 63.8 µM
TGI (SF-268 CNS): > 100 µM
TGI (PC-3 prostate): > 100 µM
TGI (SK-MEL-5 melanoma): > 100 µM
TGI (HOP-62 NSCLC): > 100 µM
TGI (IGROV1 ovarian): > 100 µM
TGI (NCI/ADR-RES ovarian): > 100 µM
TGI (HS 578T breast): > 100 µM
TGI (HCT-116 colon): > 100 µM
TGI (UACC-62 melanoma): > 100 µM
TGI (UO-31 renal): > 100 µM
TGI (SF-539 CNS): > 100 µM
TGI (NCI-H522 lung): > 100 µM
TGI (OVCAR-4 ovarian): > 100 µM
TGI (OVCAR-5 ovarian): > 100 µM
GI50 (EKVX NSCLC): 15.5 µM and > 62.4 µM
TGI (EKVX NSCLC): > 100 µM
TGI (SNB-19 CNS): > 100 µM
TGI (SNB-75 CNS): > 100 µM
TGI (MDA-N): > 100 µM
TGI (MALME-3M melanoma): > 100 µM
TGI (SK-MEL-28 melanoma): > 100 µM
TGI (U251 CNS): > 100 µM
GI50 (KM12 colon): 4.95 µM and 32.4 µM
TGI (KM12 colon): > 100 µM
GI50 (786-0 renal): 35.4 µM and > 100 µM
TGI (786-0 renal): > 100 µM
TGI (K-562 leukemia): > 100 µM
TGI (TK-10 renal): > 100 µM
TGI (SK-MEL-2 melanoma): > 100 µM
TGI (HOP-92 NSCLC): > 100 µM
TGI (MDA-MB-435): > 100 µM
TGI (MCF7 breast): > 100 µM
TGI (HCT-15 colon): > 100 µM
TGI (NCI-H23 lung): > 100 µM
TGI (DU-145 prostate): > 100 µM
TGI (MDA-MB-231 breast): > 100 µM
TGI (ACHN renal): > 100 µM
TGI (A498 renal): > 100 µM
TGI (BT-549 breast): > 100 µM
TGI (SR leukemia): > 100 µM
TGI (LOX IMVI melanoma): > 100 µM
TGI (SK-OV-3 ovarian): > 100 µM
TGI (COLO 205 colon): > 100 µM
TGI (RXF 393 renal): > 100 µM
TGI (CCRF-CEM leukemia): > 100 µM
TGI (HT29 colon): > 100 µM
TGI (HL-60(TB) leukemia): > 100 µM
TGI (RPMI-8226 leukemia): > 100 µM
TGI (NCI-H226 lung): > 100 µM
